tested on: Con-NCI-H82 cell (NCI-H82 transfected with empty virus vector); experiment: Cell viability assay (Promega CellTiter-Glo), inhibitory effect on Con-NCI-H82 cell; assay type: cell-based; settings: Homo sapiens; NCI-H82 transfected with empty virus vector (control); CellTiter-Glo; read-out: inhibitory effect on Con-NCI-H82 (IC50)
Description: (§1) The role of expression level of NNMT gene and DNMT1 in the sensitivity of NCI-H82 cell to the compounds prepared in the Examples of the present invention was determined
(§2) The expression of NNMT protein in NCI-H82 cell was overexpressed by inserting the NNMT gene into NCI-H82 cell using a viral vector, and the NNMT protein-overexpressing NCI-H82 cell (ov-NNMT NCI-H82 cell) was obtained. The expression of DNMT1 in NCI-H82 cell was knocked down transfecting (the by shRNA nucleotide sequence of shRNA was […] TTTTTG (SEQ ID No: 2)) using a viral vector, and the NCI-H82 cell with low expression of DNMT1 protein (sh-DNMT1 NCI-H82 cell) was obtained. The control NCI-H82 cell (Con-NCI-H82 cell) was obtained by transfecting NCI-H82 cell with empty virus vector without carrying NNMT gene and shRNA. The expressing content of NNMT protein and DNMT1 protein in the Con-NCI-H82 cell, the expressing content of NNMT protein in the ov-NNMT NCI-H82 cell, and the expressing content of DNMT1 protein in the sh-DNMT1 NCI-H82 cell were detected using Western Blot assay (as shown in FIG. 15 and FIG. 16), it could be seen from FIG. 15 and FIG. 16 that the NNMT protein was overexpressed in the ov-NNMT NCI-H82 cell and the expression of DNMT1 protein was knocked down (i.e, low expression) in the sh-DNMT1 NCI-H82 cell compared with the expression level of NNMT protein and DNMT protein in the Con-NCI-H82 cell.

Row | SMILES | IC50 [nM]
1 | CCc1c2[n+](cc3c(OC)c(OC)ccc13)CCc1cc3c(cc1-2)OCO3 [compound AB31755] | 2360
2 | CCCc1c2[n+](cc3c(OC)c(OC)ccc13)CCc1cc3c(cc1-2)OCO3 [compound AB31756] | 1010
3 | CCCCCCCCc1c2[n+](cc3c(OC)c(OC)ccc13)CCc1cc3c(cc1-2)OCO3 [compound AB31761] | 270

Results, then the compound that gave them:

Row | IC50 [nM] | SMILES
4 | 70 | CCCCCCCCCCOc1c(OC)ccc2cc3[n+](cc12)CCc1cc2c(cc1-3)OCO2 [compound AB31716]
5 | 110 | CCCCCCCCCCCCOc1c(OC)ccc2cc3[n+](cc12)CCc1cc2c(cc1-3)OCO2 [compound AB31717]
6 | 130 | CCCCCCCCCCc1c2[n+](cc3c(OC)c(OC)ccc13)CCc1cc3c(cc1-2)OCO3 [compound AB31762]

tested on: sh-DNMT1 NCI-H82 cell (DNMT1 knocked down NCI-H82); experiment: Cell viability assay (Promega CellTiter-Glo), inhibitory effect on sh-DNMT1 NCI-H82 cell; assay type: cell-based; settings: Homo sapiens, NCI-H82 with DNMT1 knocked down by shRNA
Description: as §1, §2

Row | SMILES | IC50 [nM]
7 | CCc1c2[n+](cc3c(OC)c(OC)ccc13)CCc1cc3c(cc1-2)OCO3 [compound AB31755] | 7680
8 | CCCc1c2[n+](cc3c(OC)c(OC)ccc13)CCc1cc3c(cc1-2)OCO3 [compound AB31756] | 4360
9 | CCCCCCCCc1c2[n+](cc3c(OC)c(OC)ccc13)CCc1cc3c(cc1-2)OCO3 [compound AB31761] | 980

The remaining lines, values ahead:

Row | IC50 [nM] | SMILES
10 | 350 | CCCCCCCCCCOc1c(OC)ccc2cc3[n+](cc12)CCc1cc2c(cc1-3)OCO2 [compound AB31716]
11 | 360 | CCCCCCCCCCCCOc1c(OC)ccc2cc3[n+](cc12)CCc1cc2c(cc1-3)OCO2 [compound AB31717]
12 | 490 | CCCCCCCCCCc1c2[n+](cc3c(OC)c(OC)ccc13)CCc1cc3c(cc1-2)OCO3 [compound AB31762]

tested on: ov-NNMT NCI-H82 cell (NNMT protein-overexpressing NCI-H82); experiment: Cell viability assay (Promega CellTiter-Glo), inhibitory effect on ov-NNMT NCI-H82 cell; assay type: cell-based; settings: Homo sapiens
Description: as §1, §2

Row | SMILES | IC50 [nM]
13 | CCc1c2[n+](cc3c(OC)c(OC)ccc13)CCc1cc3c(cc1-2)OCO3 [compound AB31755] | 4820
14 | CCCc1c2[n+](cc3c(OC)c(OC)ccc13)CCc1cc3c(cc1-2)OCO3 [compound AB31756] | 2380
15 | CCCCCCCCc1c2[n+](cc3c(OC)c(OC)ccc13)CCc1cc3c(cc1-2)OCO3 [compound AB31761] | 740

Results, then the compound that gave them:

Row | IC50 [nM] | SMILES
16 | 380 | CCCCCCCCCCOc1c(OC)ccc2cc3[n+](cc12)CCc1cc2c(cc1-3)OCO2 [compound AB31716]
17 | 250 | CCCCCCCCCCCCOc1c(OC)ccc2cc3[n+](cc12)CCc1cc2c(cc1-3)OCO2 [compound AB31717]
18 | 320 | CCCCCCCCCCc1c2[n+](cc3c(OC)c(OC)ccc13)CCc1cc3c(cc1-2)OCO3 [compound AB31762]

From patent publication US20250195502A1, “APPLICATION OF TETRACYCLIC COMPOUND IN TREATMENT OF TUMORS” (SHANGHAI SHIJIANG BIOTECHNOLOGY CO., LTD, priority 2022, published 2025)
